Experimental data published in BindingDB's records for doi:10.1021/acs.jnatprod.8b00574 (Institute of Medicinal and Aromatic Plants, 2018).

Legend:
[1] = Inhibition of thrombin in human platelet rich plasma assessed as reduction in thrombin-induced platelet aggregation after 5 mins
[2] = Inhibition of thrombin in human washed platelets assessed as reduction in thrombin-induced platelet aggregation after 5 mins
[3] = Inhibition of thrombin in human platelet rich plasma assessed as reduction in arachidonic acid-induced platelet aggregation after 5 mins
[4] = Inhibition of thrombin in human platelet rich plasma assessed as reduction in ADP-induced platelet aggregation after 5 mins

Compound: CC[C@H](CC[C@@H](C)[C@H]1CC[C@H]2[C@@H]3CC=C4C[C@@H](O)CC[C@]4(C)[C@H]3CC[C@]12C)C(C)C [stigmast-5-en-3beta-ol]
- IC50 [1]: 10.5 µM
- IC50 [2]: 9.2 µM
- IC50 [3]: 1500 µM
- IC50 [4]: 1500 µM
